Test results taken from ChEMBL document CHEMBL4028801, “A multifactorial approach to hepatobiliary transporter assessment enables improved therapeutic compound development” (Toxicol Sci, 2013).
Structures can show the parent of a compound that is named as a salt.

Experiments:
[1] = biological target: ATP-binding cassette sub-family C member 3 (Homo sapiens, UniProt O15438); experiment: Inhibition of human MRP3 overexpressed in Sf9 insect cell membrane vesicles assessed as uptake of [3H]-estradiol-17beta-D-glucuronide in presence of ATP and GSH measured after 10 mins by membrane vesicle transport assay; type: ADME, cell-based
Sequence of ATP-binding cassette sub-family C member 3 (O15438 whole entry): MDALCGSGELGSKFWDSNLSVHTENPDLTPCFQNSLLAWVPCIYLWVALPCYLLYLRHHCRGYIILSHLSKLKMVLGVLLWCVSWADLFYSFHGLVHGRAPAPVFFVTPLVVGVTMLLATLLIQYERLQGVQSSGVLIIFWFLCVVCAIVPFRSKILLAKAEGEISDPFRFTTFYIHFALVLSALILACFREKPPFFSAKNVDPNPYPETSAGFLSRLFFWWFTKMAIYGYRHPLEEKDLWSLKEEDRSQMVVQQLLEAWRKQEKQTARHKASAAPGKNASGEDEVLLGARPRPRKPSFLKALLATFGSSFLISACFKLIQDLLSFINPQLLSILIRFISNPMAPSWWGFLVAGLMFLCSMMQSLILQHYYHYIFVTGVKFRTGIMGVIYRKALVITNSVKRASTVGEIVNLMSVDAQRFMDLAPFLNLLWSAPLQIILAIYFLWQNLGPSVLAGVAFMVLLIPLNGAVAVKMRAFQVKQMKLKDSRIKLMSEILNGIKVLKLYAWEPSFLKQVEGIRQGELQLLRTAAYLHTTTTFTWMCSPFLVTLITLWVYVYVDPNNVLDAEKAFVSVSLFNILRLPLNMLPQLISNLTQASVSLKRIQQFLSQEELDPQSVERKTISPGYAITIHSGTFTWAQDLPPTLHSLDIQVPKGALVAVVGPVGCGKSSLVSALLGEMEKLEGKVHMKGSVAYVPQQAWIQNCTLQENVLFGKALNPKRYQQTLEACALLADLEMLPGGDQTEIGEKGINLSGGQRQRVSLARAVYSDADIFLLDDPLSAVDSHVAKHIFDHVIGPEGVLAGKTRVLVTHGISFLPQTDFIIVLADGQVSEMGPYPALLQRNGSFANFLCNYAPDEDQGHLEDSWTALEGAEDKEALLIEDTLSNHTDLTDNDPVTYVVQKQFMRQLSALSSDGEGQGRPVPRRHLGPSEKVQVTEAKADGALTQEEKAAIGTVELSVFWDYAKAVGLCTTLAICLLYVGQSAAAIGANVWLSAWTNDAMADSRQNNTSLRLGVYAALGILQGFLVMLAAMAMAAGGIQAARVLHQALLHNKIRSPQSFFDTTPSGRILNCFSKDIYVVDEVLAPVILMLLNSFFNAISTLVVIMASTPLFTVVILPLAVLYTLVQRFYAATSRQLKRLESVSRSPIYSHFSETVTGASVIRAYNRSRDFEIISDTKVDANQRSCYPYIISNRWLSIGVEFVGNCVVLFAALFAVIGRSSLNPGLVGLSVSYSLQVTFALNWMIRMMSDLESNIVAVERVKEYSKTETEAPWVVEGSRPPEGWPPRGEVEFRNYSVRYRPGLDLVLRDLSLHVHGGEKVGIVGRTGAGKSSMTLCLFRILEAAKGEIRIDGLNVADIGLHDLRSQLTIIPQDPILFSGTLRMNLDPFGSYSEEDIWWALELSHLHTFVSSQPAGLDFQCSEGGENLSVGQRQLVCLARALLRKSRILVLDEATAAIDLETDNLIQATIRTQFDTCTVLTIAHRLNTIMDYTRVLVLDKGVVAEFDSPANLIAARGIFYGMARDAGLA

[2] = biological target: T1, ATP-binding cassette sub-family C member 4 (Homo sapiens, UniProt O15439); experiment: Inhibition of human MRP4 overexpressed in Sf9 cell membrane vesicles assessed as uptake of [3H]-estradiol-17beta-D-glucuronide in presence of ATP and GSH measured after 20 mins by membrane vesicle transport assay; type: ADME, cell-based
T1 sequence (O15439 whole entry): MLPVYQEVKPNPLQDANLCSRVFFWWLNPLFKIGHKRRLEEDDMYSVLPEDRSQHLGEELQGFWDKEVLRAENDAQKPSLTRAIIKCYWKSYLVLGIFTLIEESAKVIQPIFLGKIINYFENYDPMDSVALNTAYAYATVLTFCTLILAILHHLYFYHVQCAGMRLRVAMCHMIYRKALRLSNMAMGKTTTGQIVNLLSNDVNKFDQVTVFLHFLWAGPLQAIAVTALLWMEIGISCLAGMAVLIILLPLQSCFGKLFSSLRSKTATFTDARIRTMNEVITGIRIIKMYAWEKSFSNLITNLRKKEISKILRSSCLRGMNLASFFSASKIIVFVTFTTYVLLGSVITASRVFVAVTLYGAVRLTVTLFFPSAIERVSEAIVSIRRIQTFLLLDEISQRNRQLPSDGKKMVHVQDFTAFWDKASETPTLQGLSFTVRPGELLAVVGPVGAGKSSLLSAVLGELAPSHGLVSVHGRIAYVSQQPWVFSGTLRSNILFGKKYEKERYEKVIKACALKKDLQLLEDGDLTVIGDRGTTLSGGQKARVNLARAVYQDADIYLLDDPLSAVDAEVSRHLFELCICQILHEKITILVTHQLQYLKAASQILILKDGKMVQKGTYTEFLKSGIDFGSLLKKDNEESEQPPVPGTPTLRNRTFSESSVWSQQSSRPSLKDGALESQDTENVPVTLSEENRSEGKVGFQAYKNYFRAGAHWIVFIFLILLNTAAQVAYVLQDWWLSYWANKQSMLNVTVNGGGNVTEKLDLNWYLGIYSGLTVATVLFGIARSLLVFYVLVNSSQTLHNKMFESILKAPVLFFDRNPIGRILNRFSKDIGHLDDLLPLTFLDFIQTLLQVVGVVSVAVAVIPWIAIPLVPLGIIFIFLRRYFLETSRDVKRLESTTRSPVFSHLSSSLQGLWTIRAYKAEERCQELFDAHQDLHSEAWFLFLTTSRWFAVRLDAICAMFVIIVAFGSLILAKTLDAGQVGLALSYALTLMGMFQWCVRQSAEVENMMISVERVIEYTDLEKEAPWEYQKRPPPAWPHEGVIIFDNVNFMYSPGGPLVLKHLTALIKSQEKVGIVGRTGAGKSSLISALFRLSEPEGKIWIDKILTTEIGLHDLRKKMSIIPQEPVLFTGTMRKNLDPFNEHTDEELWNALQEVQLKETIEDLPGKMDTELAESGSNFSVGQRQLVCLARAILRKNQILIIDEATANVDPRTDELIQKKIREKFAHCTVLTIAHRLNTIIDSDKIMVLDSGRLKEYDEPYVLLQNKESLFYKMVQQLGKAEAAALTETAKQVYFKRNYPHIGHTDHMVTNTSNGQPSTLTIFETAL

[3] = biological target: ATP-binding cassette sub-family C member 2 (Homo sapiens, UniProt Q92887); experiment: Inhibition of human MRP2 overexpressed in Sf9 cell membrane vesicles assessed as uptake of [3H]-estradiol-17beta-D-glucuronide in presence of ATP and GSH measured after 20 mins by membrane vesicle transport assay
Sequence of ATP-binding cassette sub-family C member 2 (Q92887 whole entry): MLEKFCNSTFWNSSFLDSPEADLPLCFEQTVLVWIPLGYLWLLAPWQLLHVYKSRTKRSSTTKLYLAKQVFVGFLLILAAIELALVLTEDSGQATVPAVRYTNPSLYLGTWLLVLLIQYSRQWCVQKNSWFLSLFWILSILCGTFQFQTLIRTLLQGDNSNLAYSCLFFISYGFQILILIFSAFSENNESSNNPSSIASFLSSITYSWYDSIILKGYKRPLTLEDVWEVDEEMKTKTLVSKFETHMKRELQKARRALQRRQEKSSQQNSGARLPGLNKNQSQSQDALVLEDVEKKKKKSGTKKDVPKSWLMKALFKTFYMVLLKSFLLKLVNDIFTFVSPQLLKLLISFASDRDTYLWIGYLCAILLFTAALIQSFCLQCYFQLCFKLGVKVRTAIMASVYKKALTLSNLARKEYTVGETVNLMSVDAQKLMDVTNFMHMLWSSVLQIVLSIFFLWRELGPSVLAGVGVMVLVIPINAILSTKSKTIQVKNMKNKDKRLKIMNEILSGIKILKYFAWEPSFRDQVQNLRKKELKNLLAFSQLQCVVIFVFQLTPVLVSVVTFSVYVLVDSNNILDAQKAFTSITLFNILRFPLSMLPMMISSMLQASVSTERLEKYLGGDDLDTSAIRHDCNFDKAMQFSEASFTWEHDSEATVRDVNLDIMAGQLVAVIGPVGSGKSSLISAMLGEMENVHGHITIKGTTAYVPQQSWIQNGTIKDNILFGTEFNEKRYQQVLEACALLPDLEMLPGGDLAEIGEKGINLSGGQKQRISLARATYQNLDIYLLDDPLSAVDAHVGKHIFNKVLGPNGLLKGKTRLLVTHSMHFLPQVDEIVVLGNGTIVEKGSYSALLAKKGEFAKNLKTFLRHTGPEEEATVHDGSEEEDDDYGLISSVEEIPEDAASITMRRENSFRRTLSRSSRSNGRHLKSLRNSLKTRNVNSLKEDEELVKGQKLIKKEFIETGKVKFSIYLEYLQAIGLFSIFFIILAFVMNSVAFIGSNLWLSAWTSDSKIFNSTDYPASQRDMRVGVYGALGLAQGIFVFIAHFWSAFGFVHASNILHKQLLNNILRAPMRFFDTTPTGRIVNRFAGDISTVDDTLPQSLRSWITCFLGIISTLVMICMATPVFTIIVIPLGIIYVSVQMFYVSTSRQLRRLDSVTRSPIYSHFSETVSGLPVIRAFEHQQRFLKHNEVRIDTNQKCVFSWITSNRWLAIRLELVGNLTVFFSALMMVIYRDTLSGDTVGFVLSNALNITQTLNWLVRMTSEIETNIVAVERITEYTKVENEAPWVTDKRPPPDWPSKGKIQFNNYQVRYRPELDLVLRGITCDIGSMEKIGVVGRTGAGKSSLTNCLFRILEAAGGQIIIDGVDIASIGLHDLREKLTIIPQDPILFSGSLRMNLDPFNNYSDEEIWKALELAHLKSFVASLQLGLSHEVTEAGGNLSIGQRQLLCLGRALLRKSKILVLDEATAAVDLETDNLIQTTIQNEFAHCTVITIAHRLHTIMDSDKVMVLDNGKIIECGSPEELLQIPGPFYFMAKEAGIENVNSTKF

Bile salt export pump = Bile salt export pump (Homo sapiens, UniProt O95342); experiment: Inhibition of human BSEP overexpressed in Sf9 cell membrane vesicles assessed as uptake of [3H]-taurocholate in presence of ATP measured after 15 to 20 mins by membrane vesicle transport assay; type: ADME, cell-based
Sequence of Bile salt export pump (O95342 whole entry): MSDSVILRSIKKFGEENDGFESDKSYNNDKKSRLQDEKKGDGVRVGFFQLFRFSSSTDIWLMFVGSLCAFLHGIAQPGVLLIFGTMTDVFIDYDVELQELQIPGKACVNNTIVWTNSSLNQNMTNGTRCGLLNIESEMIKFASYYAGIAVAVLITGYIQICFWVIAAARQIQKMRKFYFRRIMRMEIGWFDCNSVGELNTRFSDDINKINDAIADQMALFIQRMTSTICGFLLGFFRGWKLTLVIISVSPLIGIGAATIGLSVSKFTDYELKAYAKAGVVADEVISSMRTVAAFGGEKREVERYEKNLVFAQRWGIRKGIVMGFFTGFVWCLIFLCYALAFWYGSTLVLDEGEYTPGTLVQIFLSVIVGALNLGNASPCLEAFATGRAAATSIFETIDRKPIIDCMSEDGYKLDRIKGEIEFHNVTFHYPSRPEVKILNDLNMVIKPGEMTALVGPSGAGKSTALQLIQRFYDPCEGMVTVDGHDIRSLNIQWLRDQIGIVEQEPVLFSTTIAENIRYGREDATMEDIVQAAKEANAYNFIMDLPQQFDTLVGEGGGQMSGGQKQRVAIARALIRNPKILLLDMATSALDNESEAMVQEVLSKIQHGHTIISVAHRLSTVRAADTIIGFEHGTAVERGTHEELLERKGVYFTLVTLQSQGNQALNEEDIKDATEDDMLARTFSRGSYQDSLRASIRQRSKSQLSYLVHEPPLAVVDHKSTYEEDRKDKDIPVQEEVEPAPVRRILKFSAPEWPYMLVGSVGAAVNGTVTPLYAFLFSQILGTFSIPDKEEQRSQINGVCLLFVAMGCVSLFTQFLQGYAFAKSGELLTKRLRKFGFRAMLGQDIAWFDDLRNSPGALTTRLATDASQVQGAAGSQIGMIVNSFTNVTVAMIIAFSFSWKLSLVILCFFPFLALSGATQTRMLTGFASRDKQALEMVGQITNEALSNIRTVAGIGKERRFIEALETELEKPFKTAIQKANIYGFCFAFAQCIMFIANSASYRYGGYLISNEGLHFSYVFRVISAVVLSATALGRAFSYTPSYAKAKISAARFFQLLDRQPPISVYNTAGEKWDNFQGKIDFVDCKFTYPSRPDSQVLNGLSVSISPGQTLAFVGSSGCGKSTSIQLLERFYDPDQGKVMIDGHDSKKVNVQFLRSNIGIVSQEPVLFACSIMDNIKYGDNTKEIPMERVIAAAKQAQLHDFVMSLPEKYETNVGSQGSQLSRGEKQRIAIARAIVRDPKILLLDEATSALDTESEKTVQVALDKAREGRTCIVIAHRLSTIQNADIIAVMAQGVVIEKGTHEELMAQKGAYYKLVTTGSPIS

Row | SMILES | IC50 [1] [µM] | IC50 [2] [µM] | IC50 [3] [µM] | IC50 (Bile salt export pump) [µM]
1 | CC(C)c1ccc2oc3nc(N)c(C(=O)O)cc3c(=O)c2c1 [AMLEXANOX] | > 133 | 2.2 | > 133 | 104
2 | COC(=O)[C@H](c1ccccc1Cl)N1CCc2sccc2C1 [CLOPIDOGREL BISULFATE] | > 133 | > 133 | > 133 | 72
3 | CNCC[C@H](Oc1cccc2ccccc12)c1cccs1 [DULOXETINE HYDROCHLORIDE] | > 133 | > 133 | > 133 | > 133
4 | CO/N=C1\CN(c2nc3c(cc2F)c(=O)c(C(=O)O)cn3C2CC2)CC1CN (stereo not drawn) [GEMIFLOXACIN MESYLATE] | > 133 | 73.2 | > 133 | > 133
5 | COc1ccc2[nH]cc(CCNC(C)=O)c2c1 [MELATONIN] | > 133 | > 133 | > 133 | > 133
6 | N[C@@H](Cc1ccc(N(CCCl)CCCl)cc1)C(=O)O | > 133 | > 133 | > 133 | > 133
7 | CS(=O)(=O)N1CCN(Cc2cc3nc(-c4cccc5[nH]ncc45)nc(N4CCOCC4)c3s2)CC1 | > 133 | 2.7 | > 133 | 15.2
8 | C=C(C)[C@H]1Cc2c(ccc3c2O[C@@H]2COc4cc(OC)c(OC)cc4[C@@H]2C3=O)O1 [ROTENONE] | > 133 | > 133 | > 133 | 8
9 | CCCCc1ncc(/C=C(\Cc2cccs2)C(=O)O)n1Cc1ccc(C(=O)O)cc1 [EPROSARTAN] | 6.65 | > 133 | 57.9 | > 133
10 | CC(CN1c2ccccc2Sc2ccccc21)N(C)C (stereo not drawn) [PROMETHAZINE] | > 133 | > 133 | > 133 | > 133
11 | O=C(CC(=O)C(F)(F)F)c1cccs1 | > 133 | > 133 | > 133 | > 133
12 | CC(C)OC(=O)OCOP(=O)(CO[C@H](C)Cn1cnc2c(N)ncnc21)OCOC(=O)OC(C)C [TENOFOVIR DISOPROXIL FUMARATE] | > 133 | > 133 | > 133 | > 133
13 | O=C(O)Cc1ccc(-c2ccccc2)cc1 [FELBINAC] | > 133 | 8.2 | > 133 | > 133
14 | CC(C)(C)NCC(O)COc1cccc2c1CC(O)C(O)C2 (stereo not drawn) [NADOLOL] | > 133 | > 133 | > 133 | > 133
15 | C#CCN(C)[C@H](C)Cc1ccccc1 [SELEGILINE HYDROCHLORIDE] | > 133 | > 133 | > 133 | > 133
16 | CC(C)(C)c1ccc(C(O)CCCN2CCC(C(O)(c3ccccc3)c3ccccc3)CC2)cc1 (stereo not drawn) [TERFENADINE] | > 133 | > 133 | > 133 | > 133
17 | CCCCCNC(=N)N/N=C/c1c[nH]c2ccc(OC)cc12 [TEGASEROD MALEATE] | > 133 | > 133 | > 133 | > 133
18 | NC(=O)c1cnccn1 [PYRAZINAMIDE] | > 133 | > 133 | > 133 | > 133
19 | CC(=O)OCC(=O)[C@@]1(O)[C@H](OC(C)=O)C[C@H]2[C@@H]3CCC4=CC(=O)C=C[C@]4(C)[C@@]3(F)[C@@H](O)C[C@@]21C [TRIAMCINOLONE DIACETATE] | > 133 | > 133 | > 133 | > 133
20 | CCCc1cc(=O)[nH]c(=S)[nH]1 [PROPYLTHIOURACIL] | > 133 | > 133 | > 133 | > 133
21 | CC(=O)N(CC(O)CO)c1c(I)c(C(=O)NCC(O)CO)c(I)c(C(=O)NCC(O)CO)c1I (stereo not drawn) [IOHEXOL] | > 133 | > 133 | > 133 | > 133
22 | CNC1=Nc2ccc(Cl)cc2C(c2ccccc2)=[N+]([O-])C1 [CHLORDIAZEPOXIDE] | > 133 | > 133 | > 133 | 44.1
